Assay results published in patent US11440907B1 (Merck Patent GmbH, priority 2018, dated 2022).

What was measured:
Type in all cases: cell-based
[1] = tested on: intracellular calcium flux in Colo-205 cells; test: Calcium flux assay (FLIPR Calcium 5 Assay Kit, FLIPR3); settings: Homo sapiens, 0.6 h, calcium flux measured over 36 minutes, read-out: Colo 205 Calcium Flux assay 384w Boston Ca assay FLIPR3 Colo EC50
Protocol: Compounds described herein induced ER stress by causing intracellular calcium flux. Calcium flux was measured in Colo-205 cells using the FLIPR® Calcium 5 Assay Kit according to manufacturer's protocol (Molecular Devices, Cat. #R8186) on a FLIPR3 system (Molecular Devices). Calcium flux is measured over 36 minutes. The Colo-205 calcium flux assay data are summarized in Table 3: A<0.6 μM; 0.6 μM≤B<2.0 μM; 2.0 μM≤C<10.0 μM; D≥10.0 μM.

[2] = tested on: β-catenin-TCF-mediated reporter transcription activity in Colo 205 cells; test: Colo 205 reporter assay (TCF/LEF promoter-driven firefly luciferase); settings: Homo sapiens; Colo 205 TCF/LEF luciferase reporter, 5 hours after compound addition, 384 well; read-out: Colo205 IC50
[3] = tested on: XBP1(u)-luciferase splicing reporter in HepG2 hepatoma cells; test: HepG2 XBP1 reporter assay (XBP1(u)-Luc); settings: Homo sapiens, 6 h, six hours after addition of compound
[4] = tested on: NCI-H929 (Multiple myeloma cells); test: Cell viability (ATPLite) in NCI-H929; settings: Homo sapiens, 96 hours
Protocol: Cells were removed from liquid nitrogen storage, thawed and expanded in appropriate growth media. Once expanded, cells were seeded in 384-well tissue culture treated plates at 500 cells per well. After 24 hours, cells were treated for either 0 hours or treated for 96 hours with a testing compound (at the concentrations of 100 nM and 2 uM). At the end of either 0 hours or 96 hours, cell status was analyzed using ATPLite (Perkin Elmer) to assess the biological response of cells to the testing compound.

Cc1cc(N2CCCCCC2c2ccc(S(C)(=O)=O)cc2C)nc(N)n1 (racemic) [I-37, (+/−)-4-methyl-6-(2-(2-methyl-4-(methylsulfonyl)phenyl)azepan-1-yl)pyrimidin-2-amine]
EC50 [1]: < 0.6 µM
IC50 [2]: 0.3 to 1 µM

Cc1cc(N2CCCOCC2c2c(F)cccc2Cl)nc(N)n1 (racemic) [I-59, (+/−)-4-(3-(2-chloro-6-fluorophenyl)-1,4-oxazepan-4-yl)-6-methylpyrimidin-2-amine]
EC50 [1]: < 0.6 µM
IC50 [2]: 0.3 to 1 µM

Cc1cc(N2CCCOCC2c2cc(F)ccc2Cl)nc(N)n1 (racemic) [I-70, (+/−)-4-[3-(2-chloro-5-fluoro-phenyl)-1,4-oxazepan-4-yl]-6-methyl-pyrimidin-2-amine]
EC50 [1]: < 0.6 µM
IC50 [2]: 0.3 to 1 µM

Cc1cc(N2CCCOCC2c2cc(N)ccc2Cl)nc(N)n1 (racemic) [I-71, (+/−)-4-(3-(5-amino-2-chlorophenyl)-1,4-oxazepan-4-yl)-6-methylpyrimidin-2-amine]
EC50 [1]: < 0.6 µM
IC50 [2]: < 0.3 µM

Cc1cc(N2CCCOCC2c2cc(NS(C)(=O)=O)ccc2Cl)nc(N)n1 (racemic) [I-74, (+/−)-N-(3-(4-(2-amino-6-methylpyrimidin-4-yl)-1,4-oxazepan-3-yl)-4-chlorophenyl)methanesulfonamide]
EC50 [1]: < 0.6 µM
IC50 [2]: < 0.3 µM

CNC(=O)c1ccc(OC)c(C2COCCCN2c2cc(C)nc(N)n2)c1 (racemic) [I-82, (+/−)-3-(4-(2-amino-6-methylpyrimidin-4-yl)-1,4-oxazepan-3-yl)-4-methoxy-N-methylbenzamide]
EC50 [1]: 0.6 to 2 µM
IC50 [2]: 0.3 to 1 µM

Cc1cc(N2CCCOC[C@@H]2c2ccc(F)cc2F)nc(N)n1 (single isomer, unassigned) [I-62]
EC50 [1]: < 0.6 µM
IC50 [2]: 0.3 to 1 µM

Cc1cc(N2CCCOC[C@@H]2c2cc(F)ccc2Cl)nc(N)n1 (single isomer, unassigned) [I-79]
EC50 [1]: < 0.6 µM
IC50 [2]: < 0.3 µM

Cc1cc(N2CCCOC[C@@H]2c2cc(O)ccc2Cl)nc(N)n1 (single isomer, unassigned) [I-170]
EC50 [1]: < 0.6 µM
IC50 [2]: < 0.3 µM

CCOC(=O)[C@]1(C)CNc2cc(Cl)c([C@H]3COCCCN3c3cc(C)nc(N)n3)cc2O1 [D-36]
IC50 [3]: < 0.6 µM
IC50 [4]: < 1 µM

CCOC(=O)[C@@]1(C)CNc2cc(Cl)c([C@H]3COCCCN3c3cc(C)nc(N)n3)cc2O1 [D-37]
IC50 [3]: 0.6 to 2 µM
IC50 [4]: ≥ 25 µM

COc1cc([C@H]2COCCCN2c2cc(C)nc(N)n2)c(Cl)cc1OCC#N [D-38]
IC50 [3]: < 0.6 µM
IC50 [4]: < 1 µM

COc1cc(N2CCCOCC2c2cc(C)nc(N)n2)c(Cl)cc1OCC(=O)Nc1ccccc1 [D-39]
IC50 [3]: 0.6 to 2 µM
IC50 [4]: 1 to 10 µM

Cc1cc(N2CCCOCC2c2ncc(CS(C)(=O)=O)cc2Cl)nc(N)n1 [D-40]
IC50 [3]: < 0.6 µM
IC50 [4]: < 1 µM

Cc1cc(N2CCCOC[C@@H]2c2ccc(CS(C)(=O)=O)cc2OC(F)(F)F)nc(N)n1 [D-41]
IC50 [3]: < 0.6 µM
IC50 [4]: < 1 µM

CCOC(=O)OCc1cc(Cl)c(C2COCCCN2c2cc(C)nc(N)n2)cc1OCC [D-42]
IC50 [3]: 0.6 to 2 µM
IC50 [4]: 1 to 10 µM

Cc1cc(N2CCCOCC2c2ncc(CS(C)(=O)=O)cc2F)nc(N)n1 [D-43]
IC50 [3]: 0.6 to 2 µM
IC50 [4]: 1 to 10 µM

Cc1cc(N2CCCOC[C@@H]2c2cc(N)c(OC(F)(F)F)cc2Cl)nc(N)n1 [D-45]
IC50 [3]: < 0.6 µM
IC50 [4]: < 1 µM

Cc1cc(N2CCCOCC2c2cc(CN)c(C)cc2Cl)nc(N)n1 [D-46]
IC50 [3]: < 0.6 µM
IC50 [4]: < 1 µM

Cc1cc(N2CCCOCC2c2cnc(CS(C)(=O)=O)cc2Cl)nc(N)n1 [D-49]
IC50 [3]: < 0.6 µM
IC50 [4]: < 1 µM

Cc1cc(N2CCCOCC2c2cc(O)c(OC(F)F)cc2Cl)nc(N)n1 [D-50]
IC50 [3]: < 0.6 µM
IC50 [4]: < 1 µM

COc1ccc(C2COCCCN2c2cc(C)nc(N)n2)c(Cl)c1 [D-51]
IC50 [3]: < 0.6 µM
IC50 [4]: < 1 µM

CCc1cc(N2CCCOCC2c2ccc(CS(C)(=O)=O)cc2Cl)nc(N)n1 [D-52]
IC50 [3]: < 0.6 µM
IC50 [4]: < 1 µM

Cc1cc(N2CCCOCC2c2ccc(CS(C)(=O)=O)nc2OC(F)F)nc(N)n1 [D-54]
IC50 [3]: < 0.6 µM
IC50 [4]: 1 to 10 µM

Cc1cc(N2CCCOCC2c2ccc(CS(C)(=O)=O)cc2Cl)nc(N)n1 [D-55]
IC50 [3]: < 0.6 µM
IC50 [4]: < 1 µM

Cc1cc(N2CCCOC[C@H]2c2cc(O)c(OC(F)F)cc2Cl)nc(N)n1 [D-56]
IC50 [3]: ≥ 5 µM
IC50 [4]: 10 to 25 µM

Cc1cc(N2CCCOC[C@@H]2c2cc(O)c(OC(F)F)cc2Cl)nc(N)n1 [D-57]
IC50 [3]: < 0.6 µM
IC50 [4]: < 1 µM

Cc1cc(N2CCCOC[C@H]2c2ccc(NC(=O)C3(F)CCOC3)cc2Cl)nc(N)n1 (stereo partly drawn) [D-58]
IC50 [3]: < 0.6 µM
IC50 [4]: < 1 µM

CCc1cc(N2CCCOC[C@@H]2c2ccc(CS(C)(=O)=O)cc2Cl)nc(N)n1 [D-59]
IC50 [3]: < 0.6 µM
IC50 [4]: < 1 µM

C#CCOc1cc(Cl)c(C2COCCCN2c2cc(C)nc(N)n2)cc1OC [D-60]
IC50 [3]: < 0.6 µM
IC50 [4]: 1 to 10 µM

Cc1cc(N2CCCOCC2c2ccc(C3CCNCC3)cc2Cl)nc(N)n1 [D-61]
IC50 [3]: < 0.6 µM
IC50 [4]: 1 to 10 µM

Cc1cc(N2CCCOC[C@H]2c2cc(N3CC[C@H](O)C3)ccc2Cl)nc(N)n1 [D-63]
IC50 [3]: < 0.6 µM
IC50 [4]: < 1 µM

Cc1cc(N2CCCOC[C@@H]2c2cc(N3CC[C@H](O)C3)ccc2Cl)nc(N)n1 [D-64]
IC50 [3]: 0.6 to 2 µM
IC50 [4]: 1 to 10 µM

Cc1cc(N2CCCOCC2c2cc(O)c(CS(C)(=O)=O)cc2Cl)nc(N)n1 [D-65]
IC50 [3]: < 0.6 µM
IC50 [4]: < 1 µM

Cc1cc(N2CCCOC[C@H]2c2ccc(C3CCNCC3)cc2Cl)nc(N)n1 [D-68]
IC50 [3]: < 0.6 µM
IC50 [4]: < 1 µM

CCc1cc(N2CCCOCC2c2cc(O)c(OC)cc2Cl)nc(N)n1 [D-71]
IC50 [3]: < 0.6 µM
IC50 [4]: < 1 µM

COc1ccc([C@H]2COCCCN2c2cc(C)nc(N)n2)c(Cl)c1 [D-80]
IC50 [3]: < 0.6 µM
IC50 [4]: < 1 µM

Cc1cc(N2CCCOC[C@@H]2c2ncc(CS(C)(=O)=O)cc2Cl)nc(N)n1 [D-81]
IC50 [3]: < 0.6 µM
IC50 [4]: < 1 µM

Cc1cc(N2CCCOC[C@@H]2c2cc(O)c(CS(C)(=O)=O)cc2Cl)nc(N)n1 [D-86]
IC50 [3]: < 0.6 µM
IC50 [4]: < 1 µM

CCc1cc(N2CCCOC[C@@H]2c2cc(O)c(OC)cc2Cl)nc(N)n1 [D-104]
IC50 [3]: < 0.6 µM
IC50 [4]: < 1 µM

CCc1cc(N2CCCOCC2c2cc(O)c(NC(C)=O)cc2Cl)nc(N)n1 [D-110]
IC50 [3]: < 0.6 µM
IC50 [4]: < 1 µM

Cc1cc(N2CCCOCC2c2ccc(O)cc2C(F)(F)F)nc(N)n1 [D-111]
IC50 [3]: < 0.6 µM
IC50 [4]: < 1 µM

CNC(=O)[C@]1(C)CNc2cc(Cl)c([C@H]3COCCCN3c3cc(C)nc(N)n3)cc2O1 [D-116]
IC50 [3]: < 0.6 µM
IC50 [4]: < 1 µM

Cc1cc(N2CCCOC[C@@H]2c2cc(O)c(C(=O)N(C)C)cc2Cl)nc(N)n1 [D-117]
IC50 [3]: < 0.6 µM
IC50 [4]: < 1 µM

Cc1cc(N2CCCOC[C@@H]2c2cc(O)c(OC(F)(F)F)cc2Cl)nc(N)n1 [D-119]
IC50 [3]: < 0.6 µM
IC50 [4]: < 1 µM

Cc1cc(N2CCCOC[C@H]2c2ccc(S(=O)(=O)C3CCC3)cc2Cl)nc(N)n1 [D-141]
IC50 [3]: ≥ 5 µM
IC50 [4]: 1 to 10 µM

Cc1cc(N2CCCOC[C@H]2c2ccc(NC(=O)C(F)F)cc2Cl)nc(N)n1 [D-142]
IC50 [3]: ≥ 5 µM
IC50 [4]: < 1 µM

Cc1cc(N2CCCOC[C@H]2c2cc3c(cc2Cl)NCCC3)nc(N)n1 [D-143]
IC50 [3]: ≥ 5 µM
IC50 [4]: ≥ 25 µM

Cc1cc(N2CCCOC[C@H]2c2cc3c(cc2Cl)N(C)CC3)nc(N)n1 [D-144]
IC50 [3]: ≥ 5 µM
IC50 [4]: ≥ 25 µM

Cc1cc(N2CCCOC[C@H]2c2cc(N)c(C(F)(F)F)cc2Cl)nc(N)n1 [D-145]
IC50 [3]: ≥ 5 µM
IC50 [4]: ≥ 25 µM

Cc1cc(N2CCCOCC2c2ccc(CS(C)(=O)=O)[nH]c2=O)nc(N)n1 [D-146]
IC50 [3]: ≥ 5 µM
IC50 [4]: ≥ 25 µM

Cc1cc(N2CCCOC[C@H]2c2ccc(CS(C)(=O)=O)cc2OC(F)F)nc(N)n1 [D-152]
IC50 [3]: ≥ 5 µM
IC50 [4]: ≥ 25 µM

CCOc1cc([C@@H]2COCCCN2c2cc(C)nc(N)n2)c(Cl)cc1OC [D-153]
IC50 [3]: ≥ 5 µM
IC50 [4]: ≥ 25 µM

Cc1cc(N2CCCOC[C@H]2c2cc3c(cc2Cl)OCC(C)(C)CO3)nc(N)n1 [D-154]
IC50 [3]: ≥ 5 µM
IC50 [4]: ≥ 25 µM

CCOC(=O)[C@]1(C)CNc2cc(Cl)c([C@@H]3COCCCN3c3cc(C)nc(N)n3)cc2O1 [D-155]
IC50 [3]: ≥ 5 µM
IC50 [4]: ≥ 25 µM

CCOC(=O)[C@@]1(C)CNc2cc(Cl)c([C@@H]3COCCCN3c3cc(C)nc(N)n3)cc2O1 [D-157]
IC50 [3]: ≥ 5 µM
IC50 [4]: ≥ 25 µM

Cc1cc(N2CCCOC[C@H]2c2ccc(OS(C)(=O)=O)cc2OC(F)(F)F)nc(N)n1 [D-158]
IC50 [3]: ≥ 5 µM
IC50 [4]: ≥ 25 µM

COc1cc([C@@H]2COCCCN2c2cc(C)nc(N)n2)c(Cl)cc1OCC#N [D-159]
IC50 [3]: ≥ 5 µM
IC50 [4]: ≥ 25 µM

Cc1cc(N2CCCCC[C@@H]2c2ccc(F)cc2C2CC2)nc(N)n1 [I-47, (R)-4-(2-(2-cyclopropyl-4-fluorophenyl)azepan-1-yl)-6-methylpyrimidin-2-amine]
EC50 [1]: 0.6 to 2 µM
IC50 [2]: 0.3 to 1 µM
